Measurements reported in patent US7700616B2, “Compounds and amyloid probes thereof for therapeutic and imaging uses” (Molecular Neuroimaging, LLC., priority 2006, dated 2010).

Tests used:
[1] = Protein binding (free ligand fraction in plasma); format: in vitro ADME; details: obtained amyloid probe
Experimental: (§1) The labeling of the compounds of the invention was carried out under standard conditions (Na^123/125I, oxidizer, acidic medium) at ambient temperature. Radiochemical yields averaged 35-90%. The labeled compounds were readily purified by reverse-phase HPLC, and their radiochemical purity exceeded 95%.

[2] = Lipophilicity (LogD); format: physicochemical; details: pH 7.4; obtained amyloid probe
Experimental: as §1

free ligand fraction in plasma [1]: 4%
logD [2]: 2.7
SMILES: CN(C)c1ccc(-n2nc3ccc(I)cc3n2)cc1 [MNI-187]
